Structures can show the parent of a compound that is named as a salt.
What was measured:
PI3Kδ = PI3Kδ (Homo sapiens, UniProt O00329); experiment: PI3Kδ kinase activity, Adapta TR-FRET ADP detection; type: biochemical; conditions: purified p110δ/p85α heterodimer; read-out: Kinases IC50 PI3Kδ
Experimental: (§1) The activity of the PI3Kα kinase was evaluated by using a purified heterodimer (reference: PV4788 from Invitrogen) consisting of the α catalytic p110 subunit (PIK3CA) and the α regulation p85 subunit (PIK3R1). The assay of the kinase with the kit Adapta™ (reference: PV5099 from Invitrogen) is an enzymatic test based on the detection of ADP, produced during the reaction, by the fluorescence technique TR-FRET. It took place in a 384-well plate and was able to be divided into two phases: an enzymatic reaction phase, and a phase for detecting the ADP level.
(§2) During the enzymatic reaction phase, the following components were mixed in 10 μL of a same well: 2.5 μL of each dilution in series of inhibitors taken up in DMSO and then diluted to 1/25 in the reaction buffer (250 mM HEPES pH 7.5, 500 mM NaCl, 0.15 CHAPS, 5 mM EGTA, 15 mM MgCl2 and 1 mM DTT, ref.: PV5101 from Invitrogen), 2.5 μL of a solution containing PI3K at the optimum concentration (concentration defined according to the optimization step described in the operating procedure of the kit) diluted in the same reaction buffer, and finally, 5 μL of a solution containing 20 μM ATP and 100 μM PIP2 diluted in the reaction buffer. For each inhibitor concentration, the reaction was conducted in three copies (triplicate). The reaction was then incubated for 60 min at room temperature without any stirring in darkness.
(§3) During the phase for detecting ADP, 5 μL of a detection solution containing an anti-ADP antibody labeled with europium (6 nM), a tracer of the Alexa Fluor® 647 type coupled with ADP (30 nM), and EDTA (30 mM, for stopping the kinase reaction) were diluted in the dilution buffer (reference: PV3574 from Invitrogen). After 30 min of incubation at room temperature with stirring (40 rpm) in darkness, the 384-well plates were read in a plate reader Victor V configured for HTRF (Perkin Elmer). The excitation was produced at 340 nm and emission was measured at 665 nm and 615 nm. The inhibition curve was then plotted according to the emission ratio at 665 nm/615 nm versus the inhibitor concentration.
(§4) In order to obtain a linear response of the signal, a titration curve ATP-ADP, corresponding to the conversion % of ATP into ADP, was achieved by varying both of these species while keeping [ADP]+[ATP]=10 μM. The emission ratio at 665 nm/615 nm resulting from this (Y) was plotted versus the conversion % of ATP into ADP (X). The data of this curve were formatted according to a model with three hyperbolic parameters from the following equation: Y=C+A*(1−(X/(B+X))).
(§5) The software package GraphPad™ Prism® thus allows calculation of the parameters A, B and C. A conversion % corresponds to an emission ratio 665 nm/615 nm, this percentage is calculated by using the following equation: Conversion %=B*(C+A−Ratio)/(Ratio−C)
(§6) The three parameters A, B and C having been defined by the preceding equation, the conversion % was therefore able to be plotted versus the inhibitor concentration. The amount of inhibitor required for causing a 50% variation in the % conversion of ATP into ADP corresponds to the IC50 value of the inhibitor.
(§7) The activity of the kinase PI3Kγγ (PV4786 from Invitrogen) was evaluated on the p110γγ catalytic subunit (PI3KCG) and that of the kinase PI3Kδδ on the purified heterodimer (PV5273) respectively consisting of the δδ catalytic p110 subunit (PIK3CD) and the α regulation p85 subunit (PIK3R1) by following the same procedure.

PC3 = experiment: Toxicity test on cells, PC3; type: cell-based; conditions: Homo sapiens, PC-3; 48 hours of treatment, Hoechst nuclei staining
Experimental: (§8) The compounds according to the invention were also tested on the cell lines HuH7, CaCo-2, HCT116, PC3, NCl, HacaT and Fibroblasts.
(§9) Operating Procedure: The cells were cultivated according to the ECACC recommendations. The toxicity test of the compounds on these cells was conducted as follows: 4×10^3 cells/well were sown in 96 wells. 24 hours after sowing the cells, the cells were exposed to increased concentrations of the compounds (0.1 μM-0.3 μM-0.9 μM-2.7 μM-8.3 μM-25 μM). After 48 hours of treatment, the cells were washed in PBS and bound in a cold ethanol/acetic acid (90/5) mixture for 20 minutes. Next, the nuclei were coloured with […] (Sigma). The acquisition of images and the analysis was carried out by means of a reader Cellomics ArrayScan VTI/HCS (Thermo Scientific).

Fibroblasts = experiment: Toxicity test on cells, Fibroblasts; type: cell-based; conditions: Fibroblast; 48 hours of treatment, Hoechst nuclei staining
Experimental: as §8, §9

HacaT = experiment: Toxicity test on cells, HacaT; type: cell-based; conditions: Homo sapiens, 48 hours of treatment, Hoechst nuclei staining
Experimental: as §8, §9

MDA = experiment: Toxicity test on cells, MDA; type: cell-based; conditions: 48 hours of treatment, Hoechst nuclei staining
Experimental: [The procedure below names another cell line; the source lists this cell line under the same test.] as §8, §9

PI3Kγ = PI3Kγ (Homo sapiens, UniProt P48736); experiment: PI3Kγ kinase activity, Adapta TR-FRET ADP detection; type: biochemical; conditions: p110γ catalytic subunit; read-out: Kinases IC50 PI3Kγ
PI3Kγ, sequence (P48736 whole entry): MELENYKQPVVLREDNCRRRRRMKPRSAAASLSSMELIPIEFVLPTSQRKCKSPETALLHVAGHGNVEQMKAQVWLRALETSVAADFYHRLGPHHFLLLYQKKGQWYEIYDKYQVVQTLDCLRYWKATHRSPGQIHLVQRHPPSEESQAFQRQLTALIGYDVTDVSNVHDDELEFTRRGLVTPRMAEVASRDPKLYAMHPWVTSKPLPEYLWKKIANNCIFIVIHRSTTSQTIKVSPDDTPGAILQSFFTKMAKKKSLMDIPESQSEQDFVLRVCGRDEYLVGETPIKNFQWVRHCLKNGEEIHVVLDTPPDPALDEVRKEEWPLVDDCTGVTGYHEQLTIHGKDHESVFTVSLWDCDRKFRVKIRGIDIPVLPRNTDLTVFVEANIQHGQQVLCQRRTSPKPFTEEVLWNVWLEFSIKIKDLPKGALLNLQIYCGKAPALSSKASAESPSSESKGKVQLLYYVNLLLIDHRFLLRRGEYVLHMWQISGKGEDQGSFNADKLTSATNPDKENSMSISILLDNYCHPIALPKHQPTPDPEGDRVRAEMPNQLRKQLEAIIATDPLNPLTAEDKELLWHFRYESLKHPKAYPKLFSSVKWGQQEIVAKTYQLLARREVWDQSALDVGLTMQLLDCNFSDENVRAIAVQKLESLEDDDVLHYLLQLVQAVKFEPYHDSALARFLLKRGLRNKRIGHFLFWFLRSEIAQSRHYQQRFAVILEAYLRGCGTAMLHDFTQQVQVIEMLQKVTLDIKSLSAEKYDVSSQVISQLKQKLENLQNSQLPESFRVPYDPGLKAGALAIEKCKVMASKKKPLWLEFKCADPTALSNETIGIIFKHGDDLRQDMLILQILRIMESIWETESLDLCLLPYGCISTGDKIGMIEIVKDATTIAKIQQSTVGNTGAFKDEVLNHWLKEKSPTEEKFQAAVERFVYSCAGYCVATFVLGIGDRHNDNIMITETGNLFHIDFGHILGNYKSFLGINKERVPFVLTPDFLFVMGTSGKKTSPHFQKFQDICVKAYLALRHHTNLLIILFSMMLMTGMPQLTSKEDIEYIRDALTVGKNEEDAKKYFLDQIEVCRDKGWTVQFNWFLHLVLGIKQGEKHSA
Experimental: as §1, §2, §3, §4, §5, §6, §7

HUH7 = experiment: Toxicity test on cells, HUH7; type: cell-based; conditions: Homo sapiens, Huh-7; 48 hours of treatment, Hoechst nuclei staining
Experimental: as §8, §9

PI3Kα = PI3Kα (Homo sapiens, UniProt P42336); experiment: PI3Kα kinase activity, Adapta TR-FRET ADP detection; type: biochemical; conditions: purified p110α/p85α heterodimer, triplicate; read-out: Kinases IC50 PI3Kα
Experimental: as §1, §2, §3, §4, §5, §6

CaCo2 = experiment: Toxicity test on cells, CaCo2; type: cell-based; conditions: Homo sapiens, Caco-2; 48 hours of treatment, Hoechst nuclei staining
Experimental: as §8, §9

HCT116 = experiment: Toxicity test on cells, HCT116; type: cell-based; conditions: Homo sapiens, HCT-116; 48 hours of treatment, Hoechst nuclei staining
Experimental: as §8, §9

NCl = experiment: Toxicity test on cells, NCl; type: cell-based; conditions: 48 hours of treatment, Hoechst nuclei staining
Experimental: as §8, §9

mTOR = mTOR (Homo sapiens, UniProt P42345); experiment: mTOR kinase activity, LANCE Ultra TR-FRET; type: biochemical; conditions: truncated mTOR protein, triplicate; read-out: Kinases IC50 mTOR
mTOR, sequence (P42345 1360-2549): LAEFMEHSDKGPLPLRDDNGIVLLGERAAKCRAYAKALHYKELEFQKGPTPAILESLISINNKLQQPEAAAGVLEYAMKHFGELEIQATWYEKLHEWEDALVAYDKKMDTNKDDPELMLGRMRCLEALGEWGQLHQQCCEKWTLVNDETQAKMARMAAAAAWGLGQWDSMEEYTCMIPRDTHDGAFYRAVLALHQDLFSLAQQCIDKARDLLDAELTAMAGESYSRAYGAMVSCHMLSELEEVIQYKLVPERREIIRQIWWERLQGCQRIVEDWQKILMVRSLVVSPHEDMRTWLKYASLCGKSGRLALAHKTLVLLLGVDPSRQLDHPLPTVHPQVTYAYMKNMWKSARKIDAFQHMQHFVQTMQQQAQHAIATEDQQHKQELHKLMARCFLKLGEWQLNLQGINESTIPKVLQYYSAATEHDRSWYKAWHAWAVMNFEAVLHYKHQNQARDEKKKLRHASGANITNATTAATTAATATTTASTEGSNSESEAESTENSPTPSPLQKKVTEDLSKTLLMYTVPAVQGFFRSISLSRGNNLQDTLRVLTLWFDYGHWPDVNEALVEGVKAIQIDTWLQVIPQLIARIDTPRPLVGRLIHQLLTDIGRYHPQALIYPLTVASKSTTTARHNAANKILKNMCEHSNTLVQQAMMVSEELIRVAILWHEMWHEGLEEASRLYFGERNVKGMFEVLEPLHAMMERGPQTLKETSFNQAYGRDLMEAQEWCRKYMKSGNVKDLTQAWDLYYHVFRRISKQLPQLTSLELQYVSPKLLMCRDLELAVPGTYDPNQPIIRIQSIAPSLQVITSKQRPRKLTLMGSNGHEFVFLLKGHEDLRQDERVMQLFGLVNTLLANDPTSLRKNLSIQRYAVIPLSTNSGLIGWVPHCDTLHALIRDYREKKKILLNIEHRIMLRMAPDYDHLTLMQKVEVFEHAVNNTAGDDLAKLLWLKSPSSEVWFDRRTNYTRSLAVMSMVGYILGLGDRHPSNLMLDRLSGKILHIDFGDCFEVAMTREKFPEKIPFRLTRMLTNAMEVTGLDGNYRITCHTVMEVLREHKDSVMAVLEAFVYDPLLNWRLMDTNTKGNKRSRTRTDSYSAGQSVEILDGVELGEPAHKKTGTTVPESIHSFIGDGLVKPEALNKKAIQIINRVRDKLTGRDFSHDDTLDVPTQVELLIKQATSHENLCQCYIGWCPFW
Experimental: The activity of the mTOR kinase was evaluated by using a purified truncated protein of the amino acids 1-1359 (reference: PV4753 from Invitrogen). The assay of the activity of the enzyme was carried out with the kit LANCE® Ultra which is an enzymatic test based on the detection of a phosphorylated peptide produced during the reaction, by using the fluorescence technique TR-FRET. It took place in a 384-well plate and was able to be divided into two phases: an enzymatic reaction phase and a phase for detecting the phosphorylated peptide.
During the enzymatic reaction phase, the following components were mixed in 10 μL of a same well: 5 μL of each dilution in series of inhibitors taken up in DMSO and then diluted to 1/25 in the reaction buffer (50 mM HEPES pH 7.5, 0.1% Tween-20, 1 mM EGTA, 10 mM MnCl2, 3 mM MgCl2 and 2 mM of DTT), 2.5 μL of a solution containing mTOR at the optimum concentration (concentration defined according to the optimization step described in the operating procedure of the kit) diluted in the same reaction buffer, and finally 2.5 μL of a solution containing 40 μM of ATP and 200 μM non-phosphorylated peptide diluted in the reaction buffer. For each inhibitor concentration, the reaction was conducted in three copies (triplicate). The reaction was then incubated for 120 min at room temperature without any stirring in darkness.
During the phase for detecting the phosphorylated peptide, 5 μL of an EDTA solution (32 mM) diluted in the dilution buffer (ref.: CR97-100 from Perkin Elmer) were injected into each well. After 5 min of incubation with stirring, 5 μL of a phosphorylated anti-peptide antibody solution labeled with europium (8 nM) and diluted in the same dilution buffer was added into each well. After 60 min of incubation at room temperature with stirring (40 rpm) in darkness, the 384-well plates were read in a plate reader Victor V configured for HTRF (Perkin Elmer). […] The inhibition curve was then plotted according to the fluorescence intensity value at 665 nm versus the inhibitor concentration.
The amount of inhibitor required for causing a 50% variation in the intensity of the signal corresponds to the IC50 value of the inhibitor.

PI3Kδ, sequence (O00329 whole entry): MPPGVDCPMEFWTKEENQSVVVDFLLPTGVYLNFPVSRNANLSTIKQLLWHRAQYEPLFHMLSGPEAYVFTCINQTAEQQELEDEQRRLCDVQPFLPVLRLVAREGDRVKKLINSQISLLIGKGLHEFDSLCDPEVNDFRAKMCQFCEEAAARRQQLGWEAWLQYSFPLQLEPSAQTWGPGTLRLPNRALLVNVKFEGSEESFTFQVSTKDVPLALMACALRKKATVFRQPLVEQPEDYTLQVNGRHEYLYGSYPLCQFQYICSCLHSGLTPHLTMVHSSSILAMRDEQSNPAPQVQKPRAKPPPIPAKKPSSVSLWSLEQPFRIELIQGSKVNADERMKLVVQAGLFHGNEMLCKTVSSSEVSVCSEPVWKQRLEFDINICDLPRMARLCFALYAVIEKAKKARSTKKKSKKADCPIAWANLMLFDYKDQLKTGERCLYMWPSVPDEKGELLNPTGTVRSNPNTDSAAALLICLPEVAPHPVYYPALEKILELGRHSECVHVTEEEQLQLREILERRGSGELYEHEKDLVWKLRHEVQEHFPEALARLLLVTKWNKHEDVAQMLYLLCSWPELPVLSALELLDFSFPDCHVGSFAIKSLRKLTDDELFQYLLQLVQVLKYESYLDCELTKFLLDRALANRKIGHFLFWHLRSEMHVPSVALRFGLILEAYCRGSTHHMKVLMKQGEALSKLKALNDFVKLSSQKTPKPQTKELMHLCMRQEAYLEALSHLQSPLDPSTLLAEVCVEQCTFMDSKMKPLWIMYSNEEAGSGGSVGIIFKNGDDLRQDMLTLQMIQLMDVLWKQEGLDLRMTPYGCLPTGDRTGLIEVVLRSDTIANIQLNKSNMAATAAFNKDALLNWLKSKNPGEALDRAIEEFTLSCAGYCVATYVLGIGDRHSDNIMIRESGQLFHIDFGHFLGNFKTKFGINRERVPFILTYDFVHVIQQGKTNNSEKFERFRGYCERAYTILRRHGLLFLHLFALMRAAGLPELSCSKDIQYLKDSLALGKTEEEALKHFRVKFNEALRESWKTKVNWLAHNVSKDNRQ
PI3Kδ, sequence (P27986 whole entry partner): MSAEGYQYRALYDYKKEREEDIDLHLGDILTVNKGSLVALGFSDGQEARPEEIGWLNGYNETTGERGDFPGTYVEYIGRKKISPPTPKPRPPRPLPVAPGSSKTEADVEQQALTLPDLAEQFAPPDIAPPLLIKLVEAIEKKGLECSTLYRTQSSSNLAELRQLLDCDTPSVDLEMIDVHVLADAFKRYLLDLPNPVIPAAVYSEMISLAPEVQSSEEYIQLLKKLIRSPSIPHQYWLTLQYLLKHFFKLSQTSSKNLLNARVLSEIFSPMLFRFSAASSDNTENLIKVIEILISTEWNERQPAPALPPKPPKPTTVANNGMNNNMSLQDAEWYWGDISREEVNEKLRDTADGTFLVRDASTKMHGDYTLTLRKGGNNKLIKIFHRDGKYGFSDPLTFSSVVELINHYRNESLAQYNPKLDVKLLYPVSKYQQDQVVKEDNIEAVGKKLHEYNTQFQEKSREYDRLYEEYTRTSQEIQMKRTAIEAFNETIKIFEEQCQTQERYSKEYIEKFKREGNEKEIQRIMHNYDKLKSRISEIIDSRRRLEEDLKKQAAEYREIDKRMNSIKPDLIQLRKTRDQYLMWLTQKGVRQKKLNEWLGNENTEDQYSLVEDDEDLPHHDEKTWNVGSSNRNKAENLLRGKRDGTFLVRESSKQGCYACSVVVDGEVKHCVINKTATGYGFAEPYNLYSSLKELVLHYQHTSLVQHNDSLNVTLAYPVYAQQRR

SMILES | IC50 (PI3Kδ) [µM] | IC50 (PI3Kγ) [µM] | IC50 (PI3Kα) [µM] | IC50 (mTOR) [µM] | IC50 (PC3) [µM] | IC50 (Fibroblasts) [µM] | IC50 (HacaT) [µM] | IC50 (MDA) [µM] | IC50 (HUH7) [µM] | IC50 (CaCo2) [µM] | IC50 (HCT116) [µM] | IC50 (NCl) [µM]
Oc1cccc(-c2nc(N3CCOCC3)c3ncc(Cl)cc3n2)c1 [Compound 6, 3-(7-Chloro-4-morpholinopyrido[3,2-d]pyrimidin-2-yl)phenol] | 0.01 | 0.273 | 0.012 | 0.183 | > 25 | > 25 | 4 | > 25 | 0.8 | 8 | 9 | > 25
Oc1cccc(-c2nc(N3CCOCC3)c3ncc(CN4CCOCC4)cc3n2)c1 [Compound 29, 3-(4-morpholino-7-(morpholinomethyl)pyrido[3,2-d]pyrimidin-2-yl) phenol hydrochloride] | 0.041 | 1.3 | 0.043 | 0.286 | 2 | > 25 | 8 | > 25 | > 25 | 3 | 5 | > 25
Oc1cccc(-c2nc(N3CCOCC3)c3ncc(CNC4CCCCC4)cc3n2)c1 [Compound 28, 3-(7-((cyclohexylamino)methyl)-4-morpholinopyrido[3,2-d]pyrimidin-2-yl)phenol hydrochloride] | 0.213 | 0.769 | 0.358 | 1.2 | 25 | > 25 | 20 | > 25 | 15 | 10 | 20 | 25
CN1CCN(Cc2cnc3c(N4CCOCC4)nc(-c4cccc(O)c4)nc3c2)CC1 [Compound 30, 3-(7-((4-methylpiperazin-1-yl)methyl)-4-morpholinopyrido[3,2-d]pyrimidin-2-yl)phenol hydrochloride] | 0.157 | 0.244 | 0.391 | 2.2 | 7 | > 25 | 8 | 20 | 5 | 2 | 10 | 15

Second part, led by results:

IC50 (PI3Kδ) [µM] | IC50 (PI3Kγ) [µM] | IC50 (PI3Kα) [µM] | IC50 (mTOR) [µM] | SMILES | IC50 (PC3) [µM] | IC50 (Fibroblasts) [µM] | IC50 (HacaT) [µM] | IC50 (MDA) [µM] | IC50 (HUH7) [µM] | IC50 (CaCo2) [µM] | IC50 (HCT116) [µM] | IC50 (NCl) [µM]
 |  | 0.011 |  | Oc1cccc(-c2nc(N3CCOCC3)c3ncc(CN4CCN(C5CCCCC5)CC4)cc3n2)c1 [Compound 56, 3-{7-[(4-cyclohexylpiperazin-1-yl)methyl]-4-(morpholin-4-yl)pyrido[3,2-d]pyrimidin-2yl}phenol] | 8 | 10 | 8 | 12 | 6 | 6 | 7 | 11
3.9 | 5 | 0.546 | 5.2 | Oc1cccc(-c2nc(N3CCOCC3)nc3cc(Cl)cnc23)c1 [Compound 51, 3-(7-chloro-2-morpholinopyrido[3,2-d]pyrimidin-4-yl)phenol] | > 25 | > 25 | > 25 | > 25 | > 25 | 20 | > 25 | > 25
 |  | 0.003 |  | COCc1cn(Cc2cnc3c(N4CCOCC4)nc(-c4ccc(NC(=O)Nc5ccc(CO)cc5)cc4)nc3c2)nn1 [Compound 81, 1-[4-(hydroxymethyl)phenyl]-3-[4-(7-{[4-(methoxymethyl)-1H-1,2,3-triazol-1-yl]methyl}-4-(morpholin-4-yl)pyrido[3,2-d]pyrimidin-2-yl)phenyl]urea] | 0.1 | > 25 | 0.3 | 0.5 | 7 | 2 | 0.1 | 0.3
0.022 | 0.043 | 0.01 | 0.055 | [N-]=[N+]=NCc1cnc2c(N3CCOCC3)nc(-c3cccc(O)c3)nc2c1 [Compound 39, 3-(7-(azidomethyl)-4-morpholinopyrido[3,2-d]pyrimidin-2-yl)phenol] | 3 | > 25 | 4 | > 25 | 4 | 2 | 5 | 3
